What was measured:
[1] = molecular target: horse cytochrome-C on Source 15S cation exchange resin; experiment: Batch displacement assay, cytochrome-C on Source 15S; format: binding; details: input displacer concentration displacing 50% of bound protein; 50 mM phosphate, pH 6.0
Description: (§1) A modified batch displacement assay was used to investigate displacer efficacy of the carbohydrate derivatives over a wide range of concentrations. The carbohydrate derivatives from hereon will be referred to as the displacer candidates unless otherwise specified. Different input concentrations of the displacer candidates were employed to determine the DC50 value, which is the input displacer concentration required to displace fifty percent of the initially bound protein. The lower the DC50 value the more efficacious is the displacer candidate.
(§2) Column 201 is the displacer candidate evaluated. Column 202 is DC50 values of horse cytochrome-C on HP Sepharose SP. Column 203 is the DC50 values of horse cytochrome-C on Source 15S cation exchange resin. The above approach was employed to determine the DC50 values of the displacer candidates for the displacement of horse cytochrome-C on HP Sepharose SP and Source 15S cation exchange resins at pH 6.0.
The influence of the stationary phase on displacer affinity was investigated using a second strong cation exchange resin, Source 15S.
(§3) The bulk stationary phase (HP Sepharose SP or Source 15S) was first washed once with de-ionized water and then three times with the buffer, (50 mM phosphate, pH 6.0) and allowed to equilibrate for 2 hours. After gravity-settling of the stationary phase, the supernatant was removed and 3.0 mL of the remaining stationary phase slurry was equilibrated with 36 ml containing 3 mg/ml of the protein (horse heart cytochrome-C or chicken egg lysozyme) in 50 mM phosphate buffer, pH 6.0, at 20° C.
(§4) The protein was equilibrated with the resin for five hours in order to attain complete equilibration during which, the stationary phase was allowed to gravity-settle. Upon settling, the supernatant was removed and the protein content in the supernatant was determined using absorbance detection at 280 or 405 nm using a plate reader. The mass of the protein adsorbed on the stationary phase was determined by mass balance.
(§5) For the screening experiments, 300 μL of different initial concentrations (ranging from 0.3 to 5 mM) of a displacer solution was added to 25 μL aliquots of the stationary phase slurry with bound protein. (note: a different displacer candidate and concentration were employed for each vial to enable parallel screening). The system was equilibrated for 5 h. After equilibrium was achieved, the supernatant was removed and the protein content was determined by absorbance detection at 280 or 405 nm using a plate reader.
(§6) The percent protein displaced, was calculated for each aliquot based on the protein mass balance and the data was plotted as a function of the initial displacer concentration. The resulting plots were then employed to determine the initial displacer concentration required to displace fifty percent of the adsorbed protein (i.e. the DC50).

[2] = molecular target: horse cytochrome-C on HP Sepharose SP; experiment: Batch displacement assay, cytochrome-C on HP Sepharose SP; format: binding; details: input displacer concentration displacing 50% of bound protein; 50 mM phosphate, pH 6.0
Description: as §1
as §2, with “Table 1 is of displacer candidates and their respective DC50 values of horse cytochrome-C on HP Sepharose SP and Source 15S cation exchange resins in accordance with the present invention. Column 201” for “Column 201”
as §3, §4, §5, §6

[3] = tested on: chicken-egg lysozyme adsorbed on HP Sepharose SP; experiment: Batch displacement assay, lysozyme on HP Sepharose SP; format: binding; details: displacer concentration 2.5 mM
Experimental: FIG. 2 depicts a graph comparing the % lysozyme and % cytochrome-C displaced on HP Sepharose SP in accordance with the present invention. The Y axis is % protein displaced. The X axi is the displacer candidate evaluated. The displacer candidate concentration is 2.5 mM in an embodiment of the present invention. In order to evaluate the displacer candidates with another protein, experiments were carried out with chicken-egg lysozyme adsorbed on HP Sepharose SP. Referring to FIG. 2, a comparison of the percent protein displaced for both lysozyme and cytochrome-C at displacer concentrations of 2.5 mM is shown. The data is arranged in increasing order of percent lysozyme displaced. […] Upon settling, the supernatant was removed and the protein content in the supernatant was determined using absorbance detection at 280 or 405 nm using a plate reader. The mass of the protein adsorbed on the stationary phase was determined by mass balance. […] After equilibrium was achieved, the supernatant was removed and the protein content was determined by absorbance detection at 280 or 405 nm using a plate reader. The percent protein displaced, was calculated for each aliquot based on the protein mass balance and the data was plotted as a function of the initial displacer concentration. […]

[4] = tested on: DNA; experiment: Ethidium bromide displacement assay (DNA binding); parameters: species or system calf; details: 96-well format
Description: A method for condensing DNA comprising combining the DNA with at least one of the aforementioned derivatives of a carbohydrate compound wherein the DNA is bound to the carbohydrate compound is presented in accordance with the present invention. FIG. 3 depicts a graph of DNA binding efficacy of the displacer candidates in an embodiment of the present invention. The Y axis is % fluorescence decreased and the X axis is the carbohydrate derivative evaluated.
Referring to FIG. 3, an ethidium bromide displacement assay was employed to evaluate the DNA-binding affinity of carbohydrate derivatives in a 96-well format. Using this screen, the percent fluorescence decreased was used as a parameter to rank the DNA-binding efficacy of the various compounds.

| Compound | DC50 [1] [µM] | DC50 [2] [µM] | DC50-Cytochrome C on Source 15S [1] | percent protein displaced (lysozyme) [3] [%] | DC50-Cytochrome C on HP Sepharose SP [2] | % fluorescence decreased [4] |
| --- | --- | --- | --- | --- | --- | --- |
| NCCN [Ethylenediamine, ethylenediamine, reference compound] | 17600 ± 2150 | 20200 ± 2670 |  |  |  |  |
| COC1OC(COC(=O)NCCCNCCCCNCCCN)C(O)C(O)C1NC(=O)NCCCNCCCCNCCCN (stereo not drawn) [4b] | 800 | 3600 | sub-millimolar |  |  |  |
| NCCCNCCCCNCCCNC(=O)Nc1ncnc2c1ncn2C1CC(OC(=O)NCCCNCCCCNCCCN)C(COC(=O)NCCCNCCCCNCCCN)O1 (stereo not drawn) [compound 11] | 1100 ± 140 | 2300 |  |  |  |  |
| COC1OC(CO)C(OC2OC(CNC(=O)NCCCNCCCCNCCCN)C(O)C(O)C2NC(=O)NCCCNCCCCNCCCN)C1O (stereo not drawn) [20b] | 800 ± 40 | 1100 | sub-millimolar |  |  |  |
| NCCNCCN [Diethylenetriamine, diethylenetriamine, reference compound] | 14400 ± 3670 | 10800 ± 190 |  |  |  |  |
| NCCNC(=O)NCC1OC(OC2C(NC(=O)NCCN)CC(NC(=O)NCCN)C(O)C2O)C(NC(=O)NCCN)C(O)C1O (stereo not drawn) [17a] | 2300 ± 40 | 2100 |  |  |  |  |
| NCCCNCCCCNCCCNC(=O)OC1CC(n2cnc3c(N)ncnc32)OC1CO (stereo not drawn) [compound 9] | 12900 ± 1460 | 12300 ± 250 |  |  |  |  |
| NCCNC(=O)NCC1OC(OC2C(NC(=O)NCCN)CC(NC(=O)NCCN)C(OC3OC(CO)C(O)C(NC(=O)NCCN)C3O)C2O)C(O)C(O)C1O (stereo not drawn) [23a] | 1700 ± 20 | 2000 ± 150 |  |  |  |  |
| NCCCNCCCCNCCCNC(=O)NCC1OC(OC2C(NC(=O)NCCCNCCCCNCCCN)CC(NC(=O)NCCCNCCCCNCCCN)C(O)C2O)C(NC(=O)NCCCNCCCCNCCCN)C(O)C1O (stereo not drawn) [17b, neamine tetraspermine] | 600 | 700 |  | 52.8 | sub-millimolar |  |
| NCCCCNCCCN [Spermidine, spermidine, reference compound] | 5800 ± 440 | 7700 ± 1440 |  |  |  | relatively low efficacies |
| NCC1OC(OC2C(CO)OC(OC3C(O)C(N)CC(N)C3OC3OC(CN)C(O)C(O)C3N)C2O)C(N)C(O)C1O (stereo not drawn) [Neomycin, neomycin, reference compound] | 1700 ± 20 | 2800 |  |  |  | relatively low efficacies |
| NC[C@H]1O[C@H](O[C@H]2[C@H](O)[C@@H](O)[C@H](N)C[C@@H]2N)[C@H](N)[C@@H](O)[C@@H]1O [Neamine, neamine, reference compound] | 4900 ± 1670 | 5600 |  |  |  |  |
| NCCCNCCCCNCCCNC(=O)NCC1OC(OC2C(NC(=O)NCCCNCCCCNCCCN)CC(NC(=O)NCCCNCCCCNCCCN)C(OC3OC(CO)C(O)C(NC(=O)NCCCNCCCCNCCCN)C3O)C2O)C(O)C(O)C1O (stereo not drawn) [23c, kanamycin A tetraspermine] | 900 | 1000 |  |  | sub-millimolar |  |
| NCCCNCCCCNCCCNC(=O)NC1C(OCc2ccccc2)OC(COC(=O)NCCCNCCCCNCCCN)C(O)C1O (stereo not drawn) [4d] | 800 | 2800 ± 200 | sub-millimolar |  |  |  |
| NCCCNCCCCNCCCN [Spermine, spermine, reference compound] | 4300 ± 640 | 4800 |  |  |  | relatively low efficacies |
| COC1OC(CO)C(OC2OC(CNC(=O)NCCNCCN)C(O)C(O)C2NC(=O)NCCNCCN)C1O (stereo not drawn) [20a] | 4800 ± 30 | 9400 ± 2650 |  |  |  |  |
| NCCCNCCCCNCCCNC(=O)NC1C(O)OC(COC(=O)NCCCNCCCCNCCCN)C(O)C1O (stereo not drawn) [4a] | 900 | 2800 | sub-millimolar |  |  |  |
| NC[C@H]1O[C@H](O[C@H]2[C@H](O)[C@@H](O[C@H]3O[C@H](CO)[C@@H](O)[C@H](N)[C@H]3O)[C@H](N)C[C@@H]2N)[C@H](N)[C@@H](O)[C@@H]1O [Bekanamycin, bekanamycin, reference compound] | 3100 ± 2290 | 6200 ± 370 |  |  |  | relatively low efficacies |
| NCCCNCCCCNCCCNC(=O)NC1C(OCc2ccccc2)OC(COC(=O)NCCCNCCCCNCCCN)C(O)C1O (stereo not drawn) [4c] | 800 | 1300 | sub-millimolar |  |  |  |
| NCCNC(=O)NCC1OC(OC2C(NC(=O)NCCN)CC(NC(=O)NCCN)C(OC3OC(CO)C(O)C(NC(=O)NCCN)C3O)C2O)C(N)C(O)C1O (stereo not drawn) [compound 24] | 1900 ± 60 | 1900 ± 10 |  |  |  |  |
| NCCNC(=O)NCC1OC(OC2C(CO)OC(OC3C(O)C(NC(=O)NCCN)CC(NC(=O)NCCN)C3OC3OC(CNC(=O)NCCN)C(O)C(O)C3NC(=O)NCCN)C2O)C(NC(=O)NCCN)C(O)C1O (stereo not drawn) [14a] | 1300 ± 90 | 1600 |  |  | highest affinity among the neomycin derivatives |  |
| NCCCNCCCCNCCCNC(=O)OCC1OC(n2cnc3c(N)ncnc32)CC1O (stereo not drawn) [compound 7] | 6200 ± 460 | 11700 ± 100 |  |  |  |  |

From patent US7439343B2, “Aminoglycoside-polyamine displacers and methods of use in displacement chromatography” (Rensselaer Polytechnic Institute, priority 2005, dated 2008)
